According to patent US12448372B2, “Class of triaromatic compounds targeting bifunctional phosphorylation site of STAT3 and applications thereof” (SHANGHAI YUYAO BIOTECH LTD., priority 2019, dated 2025):
“Also recorded” adds a separate entry of the source.

Key:
PANC-1 = assay: Cell proliferation by MTS method, PANC-1; format: cell-based; details: Homo sapiens, Pancreatic Cancer
Text: (§1) (2) Detection of Cell Proliferation by MTS Method
(§2) The MTS assay is a method for indirectly determining the number of living cells via colourimetric method. MTS is a newly synthesised tetrazole compound that reflects cell viability, which can be reduced by succinate dehydrogenase in the mitochondria of living cells to an orange-coloured formazan with an absorbance of the reduced product measured at 490 nm being in proportion to the number of living cells, thus reflecting the cell viability. This assay can be used to evaluate the effect of the compound on the proliferation of pancreatic cancer cells, thereby determining the inhibitory effect of the compound on the proliferation of pancreatic cancer cells and to calculate the IC^50. Each cells were inoculated uniformly into a 96-well plate at a density of 1-20×10^3 cells/well, 100 μL per well, and placed in a constant temperature incubator until the cells adhered to the wall. […] Under light-proof conditions, MTS was added and well mixed, the mixture was placed in a constant temperature incubator at 37° C., and the light absorption value were measured using an enzyme marker at 490 nm and the experiment was repeated for three times, IC50 was calculated with GraphPad5 Prism software.

HCT-116 = assay: Cell proliferation by MTS method, HCT-116; format: cell-based; details: Homo sapiens, Colon Cancer
Text: as §1, §2

SK-hep1 = assay: Cell proliferation by MTS method, SK-hep1; format: cell-based; details: Homo sapiens, Liver Cancer
Text: as §1, §2

PLC/PRF-5 = assay: Cell proliferation by MTS method, PLC/PRF-5; format: cell-based; details: Homo sapiens, Liver Cancer
Text: as §1, §2

H1975 = assay: Cell proliferation by MTS method, H1975; format: cell-based; details: Homo sapiens, NCI-H1975, Lung Cancer
Text: as §1, §2

SMMC7721 = assay: Cell proliferation by MTS method, SMMC7721; format: cell-based; details: Homo sapiens, SMMC-7721, Liver Cancer
Text: as §1, §2

[1] = tested on: mouse pancreatic cancer cells Pan02-Luci; assay: Pancreatic cancer liver metastasis model, Pan02-Luci in C57BL/6 mice; format: in vivo
Text: (1) Animal Experiment on Pancreatic Cancer Liver Metastasis
Pancreatic cancer is a malignant tumor of the gastrointestinal tract, with rapidly progressing condition, high degree of progression, and very limited clinical treatments, and metastasis is very likely to occur in the terminal stage, among which liver metastasis is the most common, and the occurrence of liver metastasis is also an important manifestation of the seriousness of the disease. In the present invention, by injecting pancreatic cancer cells into the spleen, the tumour cells will directed metastasize to the liver, thereby simulating the occurrence and metastasis process of pancreatic cancer liver metastasis. […] Fluorescence detection of mice was performed using the Small Animal In vivo Imaging Instrument (IVIS), according to the obtained fluorescence values, the mice were divided into control group, WB737 5 mg/kg/d low dose group, 10 mg/kg/d medium dose group and 20 mg/kg/d high dose group, and IACS-010759-10 mg/kg positive compound group, and the mean fluorescence values of each group were ensured to be consistent. […] Metastasiss were recorded using small animal in vivo imaging instrument (IVIS) during the experiment, and body weight of the mice was measured every 3-4 days. […]

H522 = assay: Cell proliferation by MTS method, H522; format: cell-based; details: Homo sapiens, NCI-H522, Lung Cancer
Text: as §1, §2

[2] = tested on: human pancreatic cancer cells MIAPACA-2; assay: Subcutaneous tumor-bearing experiment in nude mice, MIAPACA-2
Experimental: (1) Subcutaneous Tumor-Bearing Experiment in Nude Mice
Subcutaneous tumor-bearing experiment, i. e. tumour cells were injected subcutaneously into nude mice, and the tumour cells absorbed nutrients from the mice and rapidly proliferated to form tumours.
Tumour volume and mouse weight were measured every four days, and tumour volume was calculated according to the formula of volume=length×width^2×0.52. After 3 weeks post-administration, mice were sacrificed and subcutaneous tumours were peeled off, weighed and photographed.

CFPAC-1 = assay: Cell proliferation by MTS method, CFPAC-1; format: cell-based; details: Homo sapiens, Pancreatic Cancer
Text: as §1, §2

A549 = assay: Cell proliferation by MTS method, A549; format: cell-based; details: Homo sapiens, Lung Cancer
Text: as §1, §2

BXPC3 = assay: Cell proliferation by MTS method, BXPC3; format: cell-based; details: Homo sapiens, BXPC-3, Pancreatic Cancer
Text: as §1, §2

[3] = tested on: a variety of tumour cells; assay: Cell proliferation by MTS method, summary over a variety of tumour cells; format: cell-based; details: summary over different types of cancer cells; read-out: half effective proliferation inhibition concentration (IC50) against a variety of tumour cells
Text: as §1, §2

STAT3 protein = STAT3 protein (Homo sapiens, UniProt P40763); assay: Binding activity to STAT3 protein by microscale thermophoresis (MST); details: purified STAT3 recombinant protein
Method in brief: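 His-tag-labelled purified recombinant STAT3 (final 100–200 nM) was mixed with compounds at 16 concentrations in MST buffer and incubated 30 min protected from light. Thermophoresis read in capillaries gave KD values.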

MGC803 = assay: Cell proliferation by MTS method, MGC803; format: cell-based; details: Homo sapiens, MGC-803, gastric Cancer
Text: as §1, §2

STAT3 protein, sequence (P40763 whole entry): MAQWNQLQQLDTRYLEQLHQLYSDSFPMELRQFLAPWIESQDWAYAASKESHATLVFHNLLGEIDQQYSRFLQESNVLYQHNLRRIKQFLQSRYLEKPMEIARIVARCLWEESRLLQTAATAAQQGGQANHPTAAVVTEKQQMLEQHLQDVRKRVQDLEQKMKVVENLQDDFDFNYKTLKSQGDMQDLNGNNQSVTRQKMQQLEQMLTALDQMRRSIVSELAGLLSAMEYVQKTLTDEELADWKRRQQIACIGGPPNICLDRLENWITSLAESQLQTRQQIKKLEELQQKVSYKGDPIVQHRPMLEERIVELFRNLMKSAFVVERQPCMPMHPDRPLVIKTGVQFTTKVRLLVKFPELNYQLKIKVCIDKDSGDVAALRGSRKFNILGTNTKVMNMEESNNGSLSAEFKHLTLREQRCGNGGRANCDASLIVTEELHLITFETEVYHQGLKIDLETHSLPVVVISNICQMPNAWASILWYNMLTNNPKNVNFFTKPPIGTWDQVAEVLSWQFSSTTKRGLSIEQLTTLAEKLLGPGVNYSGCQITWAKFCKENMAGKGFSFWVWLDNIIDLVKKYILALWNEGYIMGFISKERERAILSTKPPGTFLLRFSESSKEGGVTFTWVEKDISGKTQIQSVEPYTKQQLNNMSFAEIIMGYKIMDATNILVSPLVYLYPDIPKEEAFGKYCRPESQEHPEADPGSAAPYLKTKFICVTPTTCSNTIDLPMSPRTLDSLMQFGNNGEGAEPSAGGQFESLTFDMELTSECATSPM

With `Cn1c(C(=O)N2CCN(Cc3ccc(OCC(F)(F)F)cc3)CC2)cc2ccc(Oc3cnc(-c4nc(-c5ccc(C(F)(F)F)cc5)no4)cn3)cc21` [Example 6, (6-((5-(3-(4-(trifluoromethyl)phenyl)-1,2,4-oxadiazol-5-yl)pyrazin-2-yl)oxy)1-methyl-1H-indol-2-yl)(4-(4-(2,2,2-trifluoroethoxy)benzyl)piperazin-1-yl)methanone] the IC50 (PANC-1) was 8.1 nM, the IC50 (HCT-116) was 11.3 nM and the IC50 (SK-hep1) was 18.6 nM. For the same compound, the IC50 (PLC/PRF-5) was 1.8 nM, the IC50 (H1975) was 11.7 nM and the IC50 (SMMC7721) was 6.4 nM. The “liver metastasis of tumours” value ([1]; Pan02-Luci injected into spleen, C57BL/6 mice, 5, 10, 20 mg/kg/d by gavage, FIG. 4A/4B) was “dose-dependently inhibits liver metastasis of tumours”, the survival of mice ([1]; pancreatic tumour liver metastasis model (Pan02), 5, 10, 20 mg/kg by gavage once a day, FIG. 4C) was “significantly prolongs the survival of mice” and the IC50 (H522) was 12 nM. For the same compound, the “effect on the body weight of mice” value ([2]; MIAPACA-2 subcutaneous model, gavage, WB737 5-20 mg/kg, IACS-010759 10 mg/kg, FIG. 3D/5D) was “no significant effect on the body weight of mice; also recorded: good tolerability”, the “tumor growth (tumor volume and tumor weight)” value ([2]; MIAPACA-2 subcutaneous, BALB/c-nude mice, 5, 10, 20 mg/kg by gavage, 3 weeks, FIG. 3) was “significantly inhibits the growth of pancreatic tumour” and the IC50 (CFPAC-1) was 3.1 nM. The IC50 (A549) was 11.9 nM, the IC50 (BXPC3) was 7.6 nM and the IC50 [3] was 0.5 to 32 nM. The Kd (STAT3 protein) was < 10 nM and the IC50 (MGC803) was 3.6 nM.
